The values that follow come from US11986470B2, “Methods of treating prostate cancer” (Janssen Pharmaceutica NV, priority 2016, dated 2024).

One assay concerns 22Rv1 cells. Put plainly: cells. The note with it: Homo sapiens, 22Rv1, 168 h. The procedure:
(§1) In vitro cytotoxicity of niraparib was assessed in 5 human prostate cancer cell lines: C4-2B, LNCaP, LNCaP AR.TB, VCaP, and 22Rv1. C4-2B, LNCaP, LNCaP AR.TB, and 22Rv1 cell lines were grown in RPMI1640±GlutaMAX™-I medium (Life Technologies #61870-036) supplemented with 10% heat-inactivated fetal bovine serum (FBS) (Life Technologies 416140-071) and non-essential amino acids (NEAA) (Life Technologies #11140-050); and VCaP cells were grown in DMEM+GlutaMAX™-I medium (Life Technologies ##10569-010) with 10% FBS and NEAA. VCaP cells were subcultured every 7 days; other lines were split every 3-4 days. Cell growth kinetics of each cell line were determined by seeding cells at several densities and monitoring growth at intervals up to 7 days. Growth was determined using the Promega Cell TiterGlo reagent (#G7571) to measure cellular ATP by means of a chemiluminescent luciferin-luciferase reaction. […] For niraparib cytotoxicity experiments, cells were harvested by brief trypsinization and each line was seeded to the inner 60 wells of 96-well plates in 100 μL of medium at an appropriate density for a 7-day treatment. The outer wells of each plate were filled with Dulbecco's phosphate buffered saline (DPBS; Life Technologies #14190-144) to reduce evaporation from test wells. Cells were rested overnight in the plates at 37° C. in a humidified 5% CO2 incubator. […] The final vehicle concentration was 0.5% DMSO. Cells were cultured for 7 days. Relative cell viability after treatment was determined using Cell TiterGlo reagent, as above. All luminescent output values were normalized to percent inhibition based on mean luminescence of the untreated control wells, and the mean percent inhibition of the vehicle control wells was subtracted from each treatment value. Percent inhibition was plotted vs log μM concentration in GraphPad Prism 7.00. Nonlinear regression and calculation of EC50 values were performed using the log(agonist) vs. response—Variable slope (four parameters) fit.

For a further assay, the system named is C4-2B cells. The experiment in a line: cells. The conditions noted are these: 7-day niraparib treatment. The procedure: as §1
Another assay has as its system LNCaP AR.TB cells. Put plainly: cells. The note with it: Homo sapiens, 168 h. Here is the method:
as §1

A further assay deals with LNCaP cells. The experiment in a line: cells. The conditions noted are these: Homo sapiens, 168 h. Here is the method: as §1
The subject of another assay is VCaP cells. Put plainly: cells. The note with it: 7-day niraparib treatment. The procedure:
as §1

Assay [1] relates to poly(ADP)ribose (PAR) formation in C4-2B cells. The conditions noted are these: 0.01-100 μM, two hours. Here is the method: (§2) PAR inhibition using niraparib was assessed in 2 human prostate cancer cell lines, C4-2B and VCaP. The C4-2B cell line was grown in RPMI1640±GlutaMAX™-I medium supplemented with 10% FBS and NEAA and split every 3-4 days. VCaP cells were grown in DMEM+GlutaMAX™-I medium with FBS and NEAA and subcultured every 7 days.
(§3) Cells were harvested by brief trypsinization and each line was seeded into 6-well plates in 1 mL of medium at an appropriate density. An extra 500 μL of complete medium was added, for a total volume per well of 1.5 mL. Cells were rested overnight in the plates at 37° C. in a humidified 5% CO2 incubator. The next day, medium was removed from plates and cells were washed using 1 mL serum free medium (RPMI or DMEM respectively). Treatment was initiated by addition of 1 mL of niraparib (final concentrations 100, 10, 1, 0.1, 0.01 and 0 μM in 0.1% DMSO) in the appropriate medium to triplicate wells. Plates were returned to the incubator for two hours.
(§4) Following treatment, extracts were prepared using reagents and procedures provided in the HT PARP in vivo Pharmacodynamic Assay II (Trevigen #4520-096-K). Medium was removed from each well and placed into separate labeled microfuge tubes, and the plates were placed on ice. The tubes were spun at 1500 rpm for 4 minutes to pellet any cells that detached from the plate during drug incubation.
(§5) Samples were assayed in duplicate.

Assay [2] has as its system poly(ADP)ribose (PAR) formation in VCaP cells. The note with it: 0.01-100 μM, two hours. Here is the method:
as §2, §3, §4, §5

The test system of the next assay is γ-H2AX in 22RV1 cells. The note with it: 22RV1 (printed 22AV1), 18 hours.
Assay [3] relates to γ-H2AX in LNCaP AR.TB cells. The note with it: 18 hours.
A further assay relates to γ-H2AX in C4-2B cells. The note with it: C4-2B (printed C4-28), 18 hours.
Assay [4] has as its system C4-2B human prostate tumors.
Method: This tumor model is not believed to be BRCA-1 or BRCA-2 deficient. Vehicle was 0.5% Methyl cellulose (MethocelTM [MUT]) prepared and kept at 4° C. in the dark. All formulations were made to be dosed at a volume of 10 ml/kg body weight. NSG male mice (Jackson Laboratories) were used. Animals were habituated for one week prior to any experimental procedures being performed. […] Mice were fed an autoclaved high fat (6%) diet laboratory chow and water ad libitum. Mice were injected with LNCaP C4-2B-luc tagged cells (1×10^6 tumors cells in a 200 μl volume of Cultrex®:RPMI 1640 medium (1:1 ratio) on the right flank. […] Mice were dosed daily by gavage (p.o.) with either vehicle, or vehicle containing niraparib as indicated below at 10 ml/kg dosing volume. Start of treatment=Day 1. Mice were treated through study day 24. […] For each individual animal, body weight and tumor volume [using the formula: Tumor Volume (mm3)=(a×b^2/2); where 'a' represents the length, and 'b' the width of the tumor as determined by caliper measurements], were monitored twice weekly throughout the study. For the pre-established tumors, a time-course of tumor growth is expressed as mean±standard error of the mean (SEM).

SMILES strings stand for the structures. Like-named read-outs stand apart in the source and are kept apart here.

On to `NC(=O)c1cccc2cn(-c3ccc([C@@H]4CCCNC4)cc3)nc12` [niraparib, 2-[4-[(3S)-piperidin-3-yl]phenyl]indazole-7-carboxamide], for which the EC50 is 3.52 µM in the assay with 22Rv1 cells; 1.22 µM in the assay with C4-2B cells; around 1.2 µM in the assay with C4-2B cells (Homo sapiens, 168 h); 2.14 µM in the assay on LNCaP AR.TB cells; 3.5 µM in the assay on LNCaP cells; 4.1 µM with VCaP cells. The molecule also yielded an EC50 with VCaP cells (Homo sapiens, 168 h) of 4.1 µM. Also, the “PAR (pg PAR/mg of protein)” value in assay [1] and in assay [2] was “reduced in a dose-dependent fashion” throughout. In addition, the “1st Significant Concentration (minimum concentration that induces significant change in γ-H2AX)” value came to 1.57 µM with γ-H2AX in 22RV1 cells, 3.13 µM in assay [3] and 1.57 µM in the assay with γ-H2AX in C4-2B cells. For the same molecule, the “tumor growth inhibition (TGI)” value in [4] (25 mg/kg QD p.o., days 22 and 24, not significant) is around 12%; in assay [4] (50 mg/kg QD p.o., days 18, 22 and 24, significant), around 40%.

As a reminder, the EC50 is the concentration at which the effect is half-maximal. A lower EC50 goes with higher potency in that assay.
